According to PubChem BioAssay (NCI):
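Test compounds were applied to cells in 96-well plates for 48 hours at 5 doses. GI50 is the concentration that inhibits growth by half. The concentration for full growth arrest is given as TGI.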

Tests used:
Assay in all cases: inhibition of tumour cell growth, NCI panel, 48 h
PC-3 prostate = test system: PC-3 prostate
UO-31 renal = test system: UO-31 renal
TK-10 renal = test system: TK-10 renal
UACC-257 melanoma = test system: UACC-257 melanoma
A549 NSCLC = test system: A549 NSCLC
RPMI-8226 leukemia = test system: RPMI-8226 leukemia
KM12 colon = test system: KM12 colon
NCI-H460 lung = test system: NCI-H460 lung
NCI-H23 lung = test system: NCI-H23 lung
SK-MEL-28 melanoma = test system: SK-MEL-28 melanoma
NCI-H226 lung = test system: NCI-H226 lung
OVCAR-8 ovarian = test system: OVCAR-8 ovarian
OVCAR-3 ovarian = test system: OVCAR-3 ovarian
DU-145 prostate = test system: DU-145 prostate
LOX IMVI melanoma = test system: LOX IMVI melanoma
MOLT-4 leukemia = test system: MOLT-4 leukemia
SK-OV-3 ovarian = test system: SK-OV-3 ovarian
IGROV1 ovarian = test system: IGROV1 ovarian
SF-268 CNS = test system: SF-268 CNS
RXF 393 renal = test system: RXF 393 renal
ACHN renal = test system: ACHN renal
SK-MEL-2 melanoma = test system: SK-MEL-2 melanoma
SK-MEL-5 melanoma = test system: SK-MEL-5 melanoma
T-47D breast = test system: T-47D breast
A498 renal = test system: A498 renal
SW-620 colon = test system: SW-620 colon
CCRF-CEM leukemia = test system: CCRF-CEM leukemia
HOP-62 NSCLC = test system: HOP-62 NSCLC
MDA-MB-231 breast = test system: MDA-MB-231 breast
OVCAR-5 ovarian = test system: OVCAR-5 ovarian
SNB-75 CNS = test system: SNB-75 CNS
MDA-MB-468 breast = test system: MDA-MB-468 breast
HS 578T breast = test system: HS 578T breast
MALME-3M melanoma = test system: MALME-3M melanoma
MDA-MB-435 = test system: MDA-MB-435
M14 melanoma = test system: M14 melanoma
HT29 colon = test system: HT29 colon
HCT-116 colon = test system: HCT-116 colon
786-0 renal = test system: 786-0 renal
BT-549 breast = test system: BT-549 breast
SR leukemia = test system: SR leukemia
CAKI-1 renal = test system: CAKI-1 renal
HOP-92 NSCLC = test system: HOP-92 NSCLC
SF-539 CNS = test system: SF-539 CNS
HCT-15 colon = test system: HCT-15 colon
U251 CNS = test system: U251 CNS
HL-60(TB) leukemia = test system: HL-60(TB) leukemia
OVCAR-4 ovarian = test system: OVCAR-4 ovarian
UACC-62 melanoma = test system: UACC-62 melanoma
SF-295 CNS = test system: SF-295 CNS
SN12C renal = test system: SN12C renal
NCI-H522 lung = test system: NCI-H522 lung
SNB-19 CNS = test system: SNB-19 CNS
K-562 leukemia = test system: K-562 leukemia
HCC-2998 colon = test system: HCC-2998 colon
COLO 205 colon = test system: COLO 205 colon
MCF7 breast = test system: MCF7 breast
EKVX NSCLC = test system: EKVX NSCLC

O=C(Nc1ccc(F)c(Cl)c1)c1cc(-c2ccc(F)cc2F)ccc1O showed a GI50 (PC-3 prostate) of 3.08 µM, a TGI (PC-3 prostate) of 13.4 µM and a GI50 (UO-31 renal) of 2.49 µM. The TGI (UO-31 renal) was 12.3 µM, the GI50 (TK-10 renal) was 3.57 µM and the TGI (TK-10 renal) was 13.5 µM. It also gave a GI50 (UACC-257 melanoma) of 1.67 µM, a TGI (UACC-257 melanoma) of 6.15 µM and a GI50 (A549 NSCLC) of 2.95 µM. It also gave a TGI (A549 NSCLC) of 15.1 µM, a GI50 (RPMI-8226 leukemia) of 1.67 µM and a TGI (RPMI-8226 leukemia) of 9.57 µM. It also gave a GI50 (KM12 colon) of 2.57 µM, a TGI (KM12 colon) of 6.83 µM and a GI50 (NCI-H460 lung) of 2.19 µM. It also gave a TGI (NCI-H460 lung) of 8.82 µM, a GI50 (NCI-H23 lung) of 1.69 µM and a TGI (NCI-H23 lung) of 4.8 µM. It also gave a GI50 (SK-MEL-28 melanoma) of 2.2 µM, a TGI (SK-MEL-28 melanoma) of 9.94 µM and a GI50 (NCI-H226 lung) of 2.1 µM. For the same compound, the TGI (NCI-H226 lung) was 7 µM, the GI50 (OVCAR-8 ovarian) was 3.1 µM and the TGI (OVCAR-8 ovarian) was 13.3 µM. It also gave a GI50 (OVCAR-3 ovarian) of 2.98 µM, a TGI (OVCAR-3 ovarian) of 12.9 µM and a GI50 (DU-145 prostate) of 3.01 µM. It also gave a TGI (DU-145 prostate) of over 100 µM, a GI50 (LOX IMVI melanoma) of 2.89 µM and a TGI (LOX IMVI melanoma) of 8.25 µM. For the same compound, the GI50 (MOLT-4 leukemia) was 1.77 µM, the TGI (MOLT-4 leukemia) was 5.47 µM and the GI50 (SK-OV-3 ovarian) was 2.06 µM. It also gave a TGI (SK-OV-3 ovarian) of 6.07 µM, a GI50 (IGROV1 ovarian) of 3.25 µM and a TGI (IGROV1 ovarian) of 27 µM. It also gave a GI50 (SF-268 CNS) of 2.23 µM, a TGI (SF-268 CNS) of 9.68 µM and a GI50 (RXF 393 renal) of 1.65 µM. For the same compound, the TGI (RXF 393 renal) was 5.45 µM, the GI50 (ACHN renal) was 2.42 µM and the TGI (ACHN renal) was 10.3 µM. For the same compound, the GI50 (SK-MEL-2 melanoma) was 1.4 µM, the TGI (SK-MEL-2 melanoma) was 3.71 µM and the GI50 (SK-MEL-5 melanoma) was 0.832 µM. For the same compound, the TGI (SK-MEL-5 melanoma) was 2.21 µM, the GI50 (T-47D breast) was 1.86 µM and the TGI (T-47D breast) was 6.61 µM. For the same compound, the GI50 (A498 renal) was 2.27 µM, the TGI (A498 renal) was 6.31 µM and the GI50 (SW-620 colon) was 3.05 µM. The TGI (SW-620 colon) was 11.9 µM, the GI50 (CCRF-CEM leukemia) was 3.34 µM and the TGI (CCRF-CEM leukemia) was over 100 µM. For the same compound, the GI50 (HOP-62 NSCLC) was 2.24 µM, the TGI (HOP-62 NSCLC) was 5.38 µM and the GI50 (MDA-MB-231 breast) was 1.96 µM. For the same compound, the TGI (MDA-MB-231 breast) was 4.62 µM, the GI50 (OVCAR-5 ovarian) was 3.39 µM and the TGI (OVCAR-5 ovarian) was 38.9 µM. For the same compound, the GI50 (SNB-75 CNS) was 1.05 µM, the TGI (SNB-75 CNS) was 4.68 µM and the GI50 (MDA-MB-468 breast) was 2.1 µM. It also gave a TGI (MDA-MB-468 breast) of 5.51 µM, a GI50 (HS 578T breast) of 1.93 µM and a TGI (HS 578T breast) of 6.55 µM. The GI50 (MALME-3M melanoma) was 1.91 µM, the TGI (MALME-3M melanoma) was 5.3 µM and the GI50 (MDA-MB-435) was 2.17 µM. It also gave a TGI (MDA-MB-435) of 7.05 µM, a GI50 (M14 melanoma) of 2.3 µM and a TGI (M14 melanoma) of 6.88 µM. For the same compound, the GI50 (HT29 colon) was 4.79 µM, the TGI (HT29 colon) was 26.8 µM and the GI50 (HCT-116 colon) was 2.04 µM. It also gave a TGI (HCT-116 colon) of 5.62 µM, a GI50 (786-0 renal) of 2.75 µM and a TGI (786-0 renal) of 9.2 µM. The GI50 (BT-549 breast) was 1.59 µM, the TGI (BT-549 breast) was 4.05 µM and the GI50 (SR leukemia) was 2.39 µM. For the same compound, the TGI (SR leukemia) was 9.53 µM, the GI50 (CAKI-1 renal) was 1.5 µM and the TGI (CAKI-1 renal) was 4.97 µM. For the same compound, the GI50 (HOP-92 NSCLC) was 1.56 µM, the TGI (HOP-92 NSCLC) was 5.45 µM and the GI50 (SF-539 CNS) was 2.58 µM. The TGI (SF-539 CNS) was 10.6 µM, the GI50 (HCT-15 colon) was 2.31 µM and the TGI (HCT-15 colon) was 10.2 µM. It also gave a GI50 (U251 CNS) of 3.01 µM, a TGI (U251 CNS) of 12.5 µM and a GI50 (HL-60(TB) leukemia) of 1.78 µM. For the same compound, the TGI (HL-60(TB) leukemia) was 4.44 µM, the GI50 (OVCAR-4 ovarian) was 2.49 µM and the TGI (OVCAR-4 ovarian) was 15.2 µM. For the same compound, the GI50 (UACC-62 melanoma) was 1.29 µM, the TGI (UACC-62 melanoma) was 3.72 µM and the GI50 (SF-295 CNS) was 2.42 µM. For the same compound, the TGI (SF-295 CNS) was 6.2 µM, the GI50 (SN12C renal) was 2.18 µM and the TGI (SN12C renal) was 8.26 µM. It also gave a GI50 (NCI-H522 lung) of 1.74 µM, a TGI (NCI-H522 lung) of 7.65 µM and a GI50 (SNB-19 CNS) of 2.95 µM. The TGI (SNB-19 CNS) was 19.1 µM, the GI50 (K-562 leukemia) was 2.01 µM and the TGI (K-562 leukemia) was 11.9 µM. It also gave a GI50 (HCC-2998 colon) of 3.28 µM, a TGI (HCC-2998 colon) of 11.6 µM and a GI50 (COLO 205 colon) of 5.11 µM. For the same compound, the TGI (COLO 205 colon) was 17.6 µM, the GI50 (MCF7 breast) was 2.48 µM and the TGI (MCF7 breast) was 13.9 µM. It also gave a GI50 (EKVX NSCLC) of 2.71 µM and a TGI (EKVX NSCLC) of 12.7 µM.
